Our source for the Tmax, T112 in liver and T112 in plasma values is patent US20230203480A1, “LIPID NANOPARTICLE FORMULATIONS FOR CRISPR/CAS COMPONENTS” (Intellia Therapeutics, Inc., priority 2016, published 2023).

Each structure is given as a SMILES string.

This series in a line: Pharmacokinetic profile of Lipid A in liver and plasma (LC/MS). Format: in vivo, mouse. The following applies: mice, after LNP administration. The method, then:
Three different guide sequences were separately formulated, according to Example 1, and injected into mice (n=3) to determine the pharmacokinetic profile of Lipid A. Levels of Lipid A in mouse liver and plasma were measured by LC/MS. […] Tmax in liver was achieved within 30 minutes of administration, whereas T112 in plasma and liver were achieved within approximately 5-6 hours of LNP administration.

As to `CCCCC/C=C\C/C=C\CCCCCCCC(=O)OCC(COC(=O)CCC(OCCCCCCCC)OCCCCCCCC)COC(=O)OCCCN(CC)CC` (stereo not drawn) [Lipid A, (9Z,12Z)-3-((4,4-bis(octyloxy)butanoyl)oxy)-2-((((3-(diethylamino)propoxy)carbonyl)oxy)methyl)propyl octadeca-9,12-dienoate], the T112 in liver was in the range of 5 to 6 h and the T112 in plasma is 5 to 6 h. For the same molecule, the Tmax (CD-1, mouse, liver, intravenous) was not above 30 min.

The term Tmax denotes the time at which the peak concentration occurs.
